{"source": "patent US7935688B2", "about": "“Vitamin D-like compound” (Chugai Seiyaku Kabushiki Kaisha, priority 2005, dated 2011)", "data": [{"tested_on": "osteocalcin production in MG-63 cells", "test": "Osteocalcin production in MG-63 cells (Gla-type Osteocalcin EIA)", "format": "cell-based, human", "settings": "(EC50 value of 1,25(OH)2D3/EC50 value of each compound)×100; eight hours exposure, then four days culture", "description": "mg-63 was obtained from Institute for Fermentation, Osaka as a human osteoblast-like cell line. MG-63 cells were maintained and cultured in a MEM medium (Minimum essential medium; pH 7.0; Invitrogen Corporation, Carlsbad, Calif., USA) containing 5% fetal bovine serum (FBS; HyClone, Logan, Utah, USA).\nMG-63 cells were adjusted to a density of 4.0×10^4 cells/mL, plated in a 96-well plate at 200 μL per well, and cultured under conditions of 37° C. and 5% carbon dioxide for 24 hours.\nAfter removing the medium, MEM containing 5% charcoal/dextran treated FBS (DCC-FBS; Hyclone, Logan, Utah, USA) was added at 180 μL/well. The test substance (1.0×10^−3 mol/L) was diluted with dimethyl sulfoxide (DMSO) to 1.0×10^−4 mol/L, 1.0×10^−5 mol/L, 1.0×10^−6 mol/L, 1.0×10^−7 mol/L and 1.0×10^−8 mol/L. 1,25(OH)2D3 was used as a positive control. Like the test substance, 1,25(OH)2D3 was diluted with DMSO. 0.02 mL of the positive control and the test substance diluted 100-fold with MEM containing 5% DCC-FCS was added to each well of the 96-well plate, so that the final drug concentration was 1.0×10^−6 mol/L to 1.0×10^−11 mol/L. Thereafter, the cells were cultured under conditions of 37° C. and 5% carbon dioxide for eight hours.\nAfter culturing for eight hours, the medium was removed, and MEM containing 5% DCC-FBS was added at 0.2 mL per well. The cells were cultured under conditions of 37° C. and 5% carbon dioxide for four days, and the medium was recovered. The medium was stored at −80° C. until osteocalcin measurement.\nThe Gla-type Osteocalcin EIA kit (Takara Bio Inc., Tokyo, Japan) was used for measurement of osteocalcin. Measurement was carried out using a microplate reader (Model 3550, Bio-Rad Laboratories, Inc., Hercules, Calif., USA) at a wavelength of 450 nm, and the results were analyzed by Microplate Manager III (Bio-Rad Laboratories, Inc., ver. 1.57).\nThe median effective concentration (EC50) was calculated from the osteocalcin concentration. Potency of induction of each compound was calculated as a ratio of EC50 of 1,25(OH)2D3 to EC50 of the compound. The relation between diseases and induction of osteocalcin production is described in Lancet (1984 May 19), 1 (8386), 1091-3; Steroids 66, 159-170 (2001); and Journal of Steroid Biochemistry & Molecular Biology 89-90, 269-271 (2004), for example.\nThe osteocalcin production level in MG-63 cells (%) was calculated by the formula: (EC50 value of 1,25(OH)2D3/EC50 value of each compound)×100.", "units": {"Osteocalcin production level in MG-63 cells (%)": "%"}, "values": [{"smiles": "CCC(CC)(c1ccc(CCC(O)C(C)(C)C)c(C)c1)c1ccc(-c2ccc(CC(=O)O)cc2)c(C)c1", "note": "(single isomer, unassigned) [Example 13, (4′-{1-ethyl-1-[4-(3-hydroxy-4,4-dimethyl-pentyl)-3-methyl-phenyl]-propyl}-2′-methyl-biphenyl-4-yl)-acetic Acid]", "Osteocalcin production level in MG-63 cells (%)": 401}, {"smiles": "CCC(CC)(c1ccc(CCC(O)C(C)(C)C)c(C)c1)c1ccc(-c2cccc(CC(=O)O)c2)c(C)c1", "note": "(single isomer, unassigned) [Example 14, (4′-{1-ethyl-1-[4-(3-hydroxy-4,4-dimethyl-pentyl)-3-methyl-phenyl]-propyl}-2′-methyl-biphenyl-3-yl)-acetic Acid]", "Osteocalcin production level in MG-63 cells (%)": 161}, {"smiles": "CCC(CC)(c1ccc(CCC(O)C(C)(C)C)c(C)c1)c1ccc(-c2ccc(CC(=O)O)cn2)c(C)c1", "note": "(single isomer, unassigned) [Example 23, [6-(4-{1-ethyl-1-[4-(3-hydroxy-4,4-dimethyl-pentyl)-3-methyl-phenyl]-propyl}-2-methyl-phenyl)-pyridin-3-yl]-acetic Acid]", "Osteocalcin production level in MG-63 cells (%)": 3264}, {"smiles": "CCC(CC)(c1ccc(CCC(O)C(C)(C)C)c(C)c1)c1ccc(-c2cncc(CC(=O)O)c2)c(C)c1", "note": "(single isomer, unassigned) [Example 24, [5-(4-{1-ethyl-1-[4-(3-hydroxy-4,4-dimethyl-pentyl)-3-methyl-phenyl]-propyl}-2-methyl-phenyl)-pyridin-3-yl]-acetic Acid]", "Osteocalcin production level in MG-63 cells (%)": 660}, {"smiles": "C=C1/C(=C\\C=C2/CCC[C@]3(C)[C@@H]([C@H](C)CCCC(C)(C)O)CC[C@@H]23)C[C@@H](O)C[C@@H]1O", "note": "[1,25(OH)2D3, 1α,25-dihydroxyvitamin D3, reference compound]", "Osteocalcin production level in MG-63 cells (%)": 100}, {"smiles": "CCC(O)(/C=C/c1ccc(C(CC)(CC)c2ccc(-c3ccc(CC(=O)O)cc3)c(C)c2)cc1C)CC", "note": "[Example 22, (E)-(4′-{1-ethyl-1-[4-(3-ethyl-3-hydroxy-1-pentenyl)-3-methyl-phenyl]-propyl}-2′-methyl-biphenyl-4-yl)-acetic Acid]", "Osteocalcin production level in MG-63 cells (%)": 1044}, {"smiles": "CCC(CC)(c1ccc(C#CC(O)(C(F)(F)F)C(F)(F)F)c(C)c1)c1ccc(-c2ccc(CC(=O)O)cc2)c(C)c1", "note": "[Example 45, (4′-{1-ethyl-1-[3-methyl-4-(4,4,4-trifluoro-3-hydroxy-3-trifluoromethyl-1-butynyl)-phenyl]-propyl}-2′-methyl-biphenyl-4-yl)-acetic Acid]", "Osteocalcin production level in MG-63 cells (%)": 546}, {"smiles": "CCC(CC)(c1ccc(/C=C/C(O)(C(F)(F)F)C(F)(F)F)c(C)c1)c1ccc(-c2ccc(CC(=O)O)cc2)c(C)c1", "note": "[Example 46, (4′-{1-ethyl-1-[3-methyl-4-((E)-4,4,4-trifluoro-3-hydroxy-3-trifluoromethyl-1-butenyl)-phenyl]-propyl}-2′-methyl-biphenyl-4-yl)-acetic Acid]", "Osteocalcin production level in MG-63 cells (%)": 2233}, {"smiles": "CCC(O)(/C=C/c1ccc(C(CC)(CC)c2ccc(-c3ccc(CC(=O)[O-])c(F)c3)c(C)c2)cc1C)CC.[Na+]", "note": "[Example 48, Sodium (4′-{1-ethyl-1-[4-((E)-3-ethyl-3-hydroxy-1-pentenyl)-3-methyl-phenyl]-propyl}-3-fluoro-2′-methyl-biphenyl-4-yl)-acetate]", "Osteocalcin production level in MG-63 cells (%)": 508}, {"smiles": "CCC(CC)(c1ccc(OCC(O)C(C)(C)C)c(C)c1)c1ccc(-c2ccc(CC(=O)O)cc2)c(C)c1", "note": "(stereo not shown) [Example 51, (4′-{1-ethyl-1-[4-(2-hydroxy-3,3-dimethyl-butoxy)-3-methyl-phenyl]-propyl}-2′-methyl-biphenyl-4-yl)-acetic Acid]", "Osteocalcin production level in MG-63 cells (%)": 650}, {"smiles": "CCC(CC)(c1ccc(/C=C/C2(O)CCCC2)c(C)c1)c1ccc(-c2ccc(CC(=O)O)cc2)c(C)c1", "note": "[Example 53, (E)-[4′-(1-Ethyl-1-{4-[2-(1-hydroxy-cyclopentyl)-vinyl]-3-methyl-phenyl}-propyl)-2′-methyl-biphenyl-4-yl]-acetic Acid]", "Osteocalcin production level in MG-63 cells (%)": 772}, {"smiles": "CCC(CC)(c1ccc(/C=C/C2(O)CCCCC2)c(C)c1)c1ccc(-c2ccc(CC(=O)O)cc2)c(C)c1", "note": "[Example 56, (E)-[4′-(1-ethyl-1-{4-[2-(1-hydroxy-cyclohexyl)-vinyl]-3-methyl-phenyl}-propyl)-2′-methyl-biphenyl-4-yl]-acetic Acid]", "Osteocalcin production level in MG-63 cells (%)": 1379}, {"smiles": "CCC(CC)(c1ccc(CCC(O)C(C)(C)C)c(C)c1)c1ccc(-c2ccc(CC(=O)O)c(F)c2)c(C)c1", "note": "(stereo not shown) [Example 60, (4′-{1-ethyl-1-[4-(3-hydroxy-4,4-dimethyl-pentyl)-3-methyl-phenyl]-propyl}-3-fluoro-2′-methyl-biphenyl-4-yl)-acetic Acid]", "Osteocalcin production level in MG-63 cells (%)": 3798}, {"smiles": "CCC(CC)(c1ccc(CCC(O)C(C)(C)C)c(C)c1)c1ccc(-c2ccc(CC(=O)O)c(Cl)c2)c(C)c1", "note": "(stereo not shown) [Example 61, (4′-{1-ethyl-1-[4-(3-hydroxy-4,4-dimethyl-pentyl)-3-methyl-phenyl]-propyl}-3-chloro-2′-methyl-biphenyl-4-yl)-acetic Acid]", "Osteocalcin production level in MG-63 cells (%)": 956}, {"smiles": "CCC(CC)(c1ccc(/C=C/C(O)(C(F)(F)F)C(F)(F)F)c(C)c1)c1ccc(-c2ccc(CC(=O)O)c(F)c2)c(C)c1", "note": "[Example 72, (4′-{1-ethyl-1-[3-methyl-4-((E)-4,4,4-trifluoro-3-hydroxy-3-trifluoromethyl-1-butenyl)-phenyl]-propyl}-3-fluoro-2′-methyl-biphenyl-4-yl)-acetic Acid]", "Osteocalcin production level in MG-63 cells (%)": 1624}, {"smiles": "CCC(CC)(c1ccc(/C=C/C(O)(C(F)(F)F)C(F)(F)F)c(C)c1)c1ccc(-c2ccc(CC(=O)O)c(Cl)c2)c(C)c1", "note": "[Example 73, (3-chloro-4′-{1-ethyl-1-[3-methyl-4-((E)-4,4,4-trifluoro-3-hydroxy-3-trifluoromethyl-1-butenyl)-phenyl]-propyl}-2′-methyl-biphenyl-4-yl)-acetic Acid]", "Osteocalcin production level in MG-63 cells (%)": 1595}, {"smiles": "CCC(CC)(c1ccc(/C=C/C(O)(C(F)(F)F)C(F)(F)F)c(C)c1)c1ccc(-c2ccc(CC(=O)O)cn2)c(C)c1", "note": "[Example 74, [6-(4-{1-ethyl-1-[3-methyl-4-((E)-4,4,4-trifluoro-3-hydroxy-3-trifluoromethyl-1-butenyl)-phenyl]-propyl}-2-methyl-phenyl)-pyridin-3-yl]-acetic Acid]", "Osteocalcin production level in MG-63 cells (%)": 1848}, {"smiles": "CCC(CC)(c1ccc(/C=C/C(O)(C(F)(F)F)C(F)(F)F)c(C)c1)c1ccc(-c2cncc(CC(=O)O)c2)c(C)c1", "note": "[Example 75, [5-(4-{1-ethyl-1-[3-methyl-4-((E)-4,4,4-trifluoro-3-hydroxy-3-trifluoromethyl-1-butenyl)-phenyl]-propyl}-2-methyl-phenyl)-pyridin-3-yl]-acetic Acid]", "Osteocalcin production level in MG-63 cells (%)": 1283}, {"smiles": "CCC(CC)(c1ccc(C#CC(O)(C(F)(F)F)C(F)(F)F)c(C)c1)c1ccc(-c2ccc(CC(=O)O)c(F)c2)c(C)c1", "note": "[Example 78, (4′-{1-ethyl-1-[3-methyl-4-(4,4,4-trifluoro-3-hydroxy-3-trifluoromethyl-1-butynyl)-phenyl]-propyl}-3-fluoro-2′-methyl-biphenyl-4-yl)-acetic Acid]", "Osteocalcin production level in MG-63 cells (%)": 617}, {"smiles": "CCC(CC)(c1ccc(/C=C/C2(O)CCCC2)c(C)c1)c1ccc(-c2ccc(CC(=O)[O-])c(F)c2)c(C)c1.[Na+]", "note": "[Example 84, Sodium [4′-(1-ethyl-1-{4-[(E)-2-(1-hydroxy-cyclopentyl)-vinyl]-3-methyl-phenyl}-propyl)-3-fluoro-2′-methyl-biphenyl-4-yl]-acetate]", "Osteocalcin production level in MG-63 cells (%)": 739}, {"smiles": "CCC(CC)(c1ccc(/C=C/C2(O)CCCC2)c(C)c1)c1ccc(-c2ccc(CC(=O)O)cn2)c(C)c1", "note": "[Example 85, {6-[4-(1-ethyl-1-{4-[(E)-2-(1-hydroxy-cyclopentyl)-vinyl]-3-methyl-phenyl}-propyl)-2-methyl-phenyl]-pyridin-3-yl}-acetic Acid]", "Osteocalcin production level in MG-63 cells (%)": 765}, {"smiles": "CCC(CC)(c1ccc(/C=C/C2(O)CCCCC2)c(C)c1)c1ccc(-c2ccc(CC(=O)O)c(F)c2)c(C)c1", "note": "[Example 88, [4′-(1-ethyl-1-{4-[(E)-2-(1-hydroxy-cyclohexyl)-vinyl]-3-methyl-phenyl}-propyl)-3-fluoro-2′-methyl-biphenyl-4-yl]-acetic Acid]", "Osteocalcin production level in MG-63 cells (%)": 4562}]}]}
